Data published in patent US10202339B2, “Therapeutic compounds and compositions” (AGIOS PHARMACEUTICALS, INC., priority 2012, dated 2019).

Target: IDH2 R140Q (Homo sapiens (Human), UniProt P48735, R140Q)
Experiment: IDH2 R140Q enzymatic cofactor depletion assay (diaphorase/resazurin)
Type: biochemical
Conditions: IDH2 R140Q enzyme, one hour preincubation with compound, one hour reaction; read-out: Enz R140Q
How it was run: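 Enzyme preincubated with compound 1 h at room temperature, then reaction started with 50 μM NADPH and 6.3 mM α-KG and run 1 h at room temperature. Remaining NADPH measured by diaphorase (36 μg/ml)/resazurin (60 μM) stop mix, fluorescence read at Ex544/Em590 after 1 min.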

Sequence of IDH2 R140Q (P48735 40-452 R140Q): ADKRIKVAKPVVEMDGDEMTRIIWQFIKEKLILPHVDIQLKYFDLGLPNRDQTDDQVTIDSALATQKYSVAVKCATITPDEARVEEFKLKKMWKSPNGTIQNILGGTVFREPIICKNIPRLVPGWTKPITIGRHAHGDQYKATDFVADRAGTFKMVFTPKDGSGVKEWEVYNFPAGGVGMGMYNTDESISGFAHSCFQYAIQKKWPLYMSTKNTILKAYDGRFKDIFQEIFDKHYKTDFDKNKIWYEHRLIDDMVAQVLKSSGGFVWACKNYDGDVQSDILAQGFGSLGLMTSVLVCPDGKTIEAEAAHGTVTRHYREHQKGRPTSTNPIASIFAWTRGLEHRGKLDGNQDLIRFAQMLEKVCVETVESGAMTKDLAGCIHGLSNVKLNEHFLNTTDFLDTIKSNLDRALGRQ

SMILES | IC50 [nM]
COc1cccc(-c2ccc(S(=O)(=O)Nc3ccccc3)cc2NC(=O)Nc2cccc(C(F)(F)F)c2)c1 [Compound 51] | 1000 to 10000
O=C(Nc1cccc(C(F)(F)F)c1)Nc1cc(S(=O)(=O)N2CCCC2)ccc1-c1ccsc1 [Compound 141] | 1000 to 10000
O=C(Nc1cc(S(=O)(=O)NCC(F)(F)F)ccc1-c1ccccc1)Nc1ncccc1C(F)(F)F [Compound 104, N-(2,2,2-trifluoroethyl)-2-(3-(3-(trifluoromethyl)pyridin-2-yl)ureido)-[1,1′-biphenyl]-4-sulfonamide] | 1000 to 10000
O=C(Nc1cccc(C(F)(F)F)c1)Nc1cc(S(=O)(=O)Nc2ccccc2)ccc1-c1ccccc1F [Compound 63] | 1000 to 10000
CC(=O)Nc1cccc(-c2ccc(S(=O)(=O)Nc3ccccc3)cc2NC(=O)Nc2cccc(C(F)(F)F)c2)c1 [Compound 110] | 1000 to 10000
Cc1nccn1-c1ccc(S(=O)(=O)Nc2ccccc2)cc1NC(=O)Nc1cccc(C(F)(F)F)c1 [Compound 343] | 1000 to 10000
O=C(Nc1cccc(C(F)(F)F)c1)Nc1cc(S(=O)(=O)Nc2ccccc2)ccc1-c1cccc(Cl)c1 [Compound 57] | 1000 to 10000
CS(=O)(=O)c1cccc(-c2ccc(S(=O)(=O)Nc3ccccc3)cc2NC(=O)Nc2cccc(C(F)(F)F)c2)c1 [Compound 58] | 1000 to 10000
COc1cccc(NC(=O)Nc2cc(S(=O)(=O)Nc3ccccc3)ccc2-c2ccsc2)c1 [Compound 7, 3-(3-(3-methoxyphenyl)ureido)-N-phenyl-4-(thiophen-3-yl)benzenesulfonamide] | 100 to 1000
O=C(Nc1cccc(C(F)(F)F)c1)Nc1cc(S(=O)(=O)N2CCOCC2)ccc1-c1ccsc1 [Compound 131, 1-(5-(morpholinosulfonyl)-2-(thiophen-3-yl)phenyl)-3-(3-(trifluoromethyl)phenyl)urea] | 100 to 1000
O=C(Nc1ccc(F)cc1F)Nc1cc(S(=O)(=O)NCC(F)(F)F)ccc1-c1ccccc1 [Compound 68, 2-(3-(2,4-difluorophenyl)ureido)-N-(2,2,2-trifluoroethyl)-[1,1′-biphenyl]-4-sulfonamide] | 100 to 1000
O=C(Nc1cccc(O)c1)Nc1cc(S(=O)(=O)NCC(F)(F)F)ccc1-c1ccccc1 [Compound 81, 2-(3-(3-hydroxyphenyl)ureido)-N-(2,2,2-trifluoroethyl)-[1,1′-biphenyl]-4-sulfonamide] | 100 to 1000
O=C(Nc1ccc(F)c(C(F)(F)F)c1)Nc1cc(S(=O)(=O)NCC(F)(F)F)ccc1-c1cccnc1 [Compound 56] | 1000 to 10000
CCNS(=O)(=O)c1ccc(-c2ccsc2)c(NC(=O)Nc2cccc(C(F)(F)F)c2)c1 [Compound 112, N-ethyl-4-(thiophen-3-yl)-3-(3-(3-(trifluoromethyl)phenyl)ureido)benzenesulfonamide] | 100 to 1000
O=C(Nc1cc(Cl)ccn1)Nc1cc(S(=O)(=O)NCC(F)(F)F)ccc1-c1ccccc1 [Compound 82, 2-(3-(4-chloropyridin-2-yl)ureido)-N-(2,2,2-trifluoroethyl)-[1,1′-biphenyl]-4-sulfonamide] | 100 to 1000
O=C(Nc1ccc(F)c(C(F)(F)F)c1)Nc1cc(S(=O)(=O)NCC(F)(F)F)ccc1C1=CCOCC1 [Compound 159, 4-(3,6-dihydro-2H-pyran-4-yl)-3-(3-(4-fluoro-3-(trifluoromethyl)phenyl)ureido)-N-(2,2,2-trifluoroethyl)benzenesulfonamide] | 100 to 1000
CC(C)(C)NS(=O)(=O)c1ccc(-c2ccsc2)c(NC(=O)Nc2cccc(C(F)(F)F)c2)c1 [Compound 118, N-(tert-butyl)-4-(thiophen-3-yl)-3-(3-(3-(trifluoromethyl)phenyl)ureido)benzenesulfonamide] | 100 to 1000
O=C(Nc1ccc(F)c(Cl)c1)Nc1cc(S(=O)(=O)NCC(F)(F)F)ccc1-c1cccnc1 [Compound 55] | 1000 to 10000
Cc1cc(NC(=O)Nc2cc(S(=O)(=O)NCC(F)(F)F)ccc2-c2ccccc2)n(C)n1 [Compound 96] | 1000 to 10000

The remaining lines, values ahead:

IC50 [nM] | SMILES
100 to 1000 | O=C(Nc1ccc(F)cc1)Nc1cc(S(=O)(=O)NCC(F)(F)F)ccc1-c1ccccc1 [Compound 39, 2-(3-(4-fluorophenyl)ureido)-N-(2,2,2-trifluoroethyl)-[1,1′-biphenyl]-4-sulfonamide]
100 to 1000 | O=C(Nc1cccc(C(F)(F)F)c1)Nc1cc(S(=O)(=O)NCC(F)(F)F)ccc1OCC1CCCO1 (stereo not shown) [Compound 176, 4-((tetrahydrofuran-2-yl)methoxy)-N-(2,2,2-trifluoroethyl)-3-(3-(3-(trifluoromethyl)phenyl)ureido)benzenesulfonamide]
100 to 1000 | CCC(C)NS(=O)(=O)c1ccc(-c2ccsc2)c(NC(=O)Nc2cccc(C(F)(F)F)c2)c1 (stereo not shown) [Compound 117, N-(sec-butyl)-4-(thiophen-3-yl)-3-(3-(3-(trifluoromethyl)phenyl)ureido)benzenesulfonamide]
100 to 1000 | O=C(Nc1cccc(Cl)c1)Nc1cc(S(=O)(=O)Nc2ccccc2)ccc1-c1ccsc1 [Compound 8, 3-(3-(3-chlorophenyl)ureido)-N-phenyl-4-(thiophen-3-yl)benzenesulfonamide]
100 to 1000 | O=C(Nc1cc(Cl)ccc1F)Nc1cc(S(=O)(=O)NCC(F)(F)F)ccc1-c1ccccc1 [Compound 74, 2-(3-(5-chloro-2-fluorophenyl)ureido)-N-(2,2,2-trifluoroethyl)-[1,1′-biphenyl]-4-sulfonamide]
100 to 1000 | O=C(Nc1ccccc1Cl)Nc1cc(S(=O)(=O)NCC(F)(F)F)ccc1-c1ccccc1 [Compound 42, 2-(3-(2-chlorophenyl)ureido)-N-(2,2,2-trifluoroethyl)-[1,1′-biphenyl]-4-sulfonamide]
100 to 1000 | O=C(Nc1cccc(C(F)(F)F)c1)Nc1cc(S(=O)(=O)Nc2ccccc2)ccc1Oc1ccccc1 [Compound 192, 4-phenoxy-N-phenyl-3-(3-(3-(trifluoromethyl)phenyl)ureido)benzenesulfonamide]
100 to 1000 | O=C(Nc1cccc(C(F)(F)F)c1)Nc1cc(S(=O)(=O)NCC2CC2)ccc1C1=CCOCC1 [Compound 154, N-(cyclopropylmethyl)-4-(3,6-dihydro-2H-pyran-4-yl)-3-(3-(3-(trifluoromethyl)phenyl)ureido)benzene sulfonamide]
100 to 1000 | CCOc1ccc(S(=O)(=O)NC2(C#N)CC2)cc1NC(=O)Nc1cccc(C(F)(F)F)c1 [Compound 181, N-(1-cyanocyclopropyl)-4-ethoxy-3-(3-(3-(trifluoromethyl)phenyl)ureido)benzenesulfonamide]
100 to 1000 | O=C(Nc1cccc(C(F)(F)F)c1)Nc1cc(S(=O)(=O)NCC(F)(F)F)ccc1Oc1cccnc1 [Compound 186, 4-(pyridin-3-yloxy)-N-(2,2,2-trifluoroethyl)-3-(3-(3-(trifluoromethyl)phenyl)ureido)benzenesulfonamide]
100 to 1000 | O=C(Nc1cccc(C(F)(F)F)c1)Nc1cc(S(=O)(=O)NC2CCOCC2)ccc1-c1ccsc1 [Compound 132, N-(tetrahydro-2H-pyran-4-yl)-4-(thiophen-3-yl)-3-(3-(3-(trifluoromethyl)phenyl)ureido)benzene sulfonamide]
100 to 1000 | O=C(Nc1ccc(F)c(Cl)c1)Nc1cc(S(=O)(=O)NCC(F)(F)F)ccc1C1=CCOCC1 [Compound 158, 3-(3-(3-chloro-4-fluorophenyl)ureido)-4-(3,6-dihydro-2H-pyran-4-yl)-N-(2,2,2-trifluoroethyl)benzene sulfonamide]
100 to 1000 | O=C(Nc1cc(S(=O)(=O)NCC(F)(F)F)ccc1-c1ccccc1)Nc1cnccc1C(F)(F)F [Compound 84, N-(2,2,2-trifluoroethyl)-2-(3-(4-(trifluoromethyl)pyridin-3-yl)ureido)-[1,1′-biphenyl]-4-sulfonamide]
100 to 1000 | O=C(Nc1cccc(C(F)(F)F)c1)Nc1cc(S(=O)(=O)NCC2CC2)ccc1C1CCCCO1 (stereo not shown) [Compound 162, N-(cyclopropylmethyl)-4-(tetrahydro-2H-pyran-2-yl)-3-(3-(3-(trifluoromethyl)phenyl)ureido)benzene sulfonamide]
100 to 1000 | O=C(Nc1cccc(CO)c1)Nc1cc(S(=O)(=O)NCC(F)(F)F)ccc1-c1ccccc1 [Compound 80, 2-(3-(3-(hydroxymethyl)phenyl)ureido)-N-(2,2,2-trifluoroethyl)-[1,1′-biphenyl]-4-sulfonamide]
100 to 1000 | O=C(Nc1cc(C(F)(F)F)ccn1)Nc1cc(S(=O)(=O)NCC(F)(F)F)ccc1-c1ccccc1 [Compound 87, N-(2,2,2-trifluoroethyl)-2-(3-(4-(trifluoromethyl)pyridin-2-yl)ureido)-[1,1′-biphenyl]-4-sulfonamide]
100 to 1000 | O=C(Nc1cc(S(=O)(=O)NC2CC2)ccc1-c1ccsc1)Nc1cccc(Cl)c1Cl [Compound 27, N-cyclopropyl-3-(3-(2,3-dichlorophenyl)ureido)-4-(thiophen-3-yl)benzenesulfonamide]
100 to 1000 | O=C(Nc1cccc(Cl)c1)Nc1cc(S(=O)(=O)NCC(F)(F)F)ccc1-c1ccccc1 [Compound 88, 2-(3-(3-chlorophenyl)ureido)-N-(2,2,2-trifluoroethyl)-[1,1′-biphenyl]-4-sulfonamide]
100 to 1000 | O=C(Nc1cncc(F)c1)Nc1cc(S(=O)(=O)NCC(F)(F)F)ccc1-c1ccccc1 [Compound 98, 2-(3-(5-fluoropyridin-3-yl)ureido)-N-(2,2,2-trifluoroethyl)-[1,1′-biphenyl]-4-sulfonamide]
100 to 1000 | Cc1cc(NC(=O)Nc2cc(S(=O)(=O)NCC(F)(F)F)ccc2-c2ccccc2)nn1C [Compound 91, 2-(3-(1,5-dimethyl-1H-pyrazol-3-yl)ureido)-N-(2,2,2-trifluoroethyl)-[1,1′-biphenyl]-4-sulfonamide]
< 100 | CCS(=O)(=O)c1ccc(S(=O)(=O)NCC(F)(F)F)cc1NC(=O)Nc1cccc(C(F)(F)F)c1 [Compound 196, 4-(ethylsulfonyl)-N-(2,2,2-trifluoroethyl)-3-(3-(3-(trifluoromethyl)phenyl)ureido)benzenesulfonamide]
